The numbers were not newly measured in patent publication US10550186B2, “Cancer therapy targeting intercellular adhesion molecule 4 (ICAM4)” (Beth Israel Deaconess Medical Center, Inc., priority 2014, dated 2020), which cites them from elsewhere.

For the data set the following is noted: more cytotoxic than the comparators.

For the compound `COc1cc2cc(c1Cl)N(C)C(=O)C[C@H](OC(=O)[C@H](C)N(C)C(C)=O)[C@]1(C)O[C@H]1[C@H](C)[C@@H]1C[C@@](O)(NC(=O)O1)[C@H](OC)/C=C/C=C(\C)C2` [Maytansine], the “cytotoxicity relative to doxorubicin, methotrexate and vinca alkyloid” value is listed as 100- to 1000 fold.
